The values below are quoted from earlier work in patent US20050123615A1, “Controlled release dosage forms of azithromycin” (Pfizer Inc, priority 2003, published 2005).

Structures are written as SMILES.

For the series the following is noted: 3,995 human patients, all dose levels combined, oral.

For the molecule `CC[C@H]1OC(=O)[C@H](C)[C@@H](O[C@H]2C[C@@](C)(OC)[C@@H](O)[C@H](C)O2)[C@H](C)[C@@H](O[C@@H]2O[C@H](C)C[C@H](N(C)C)[C@H]2O)[C@](C)(O)C[C@@H](C)CN(C)[C@H](C)[C@@H](O)[C@]1(C)O` [azithromycin, 9a-aza-9a-methyl-9-deoxo-9a-homoerythromycin A], the “patients reporting GI side effects” value is 9.6%, the “patients reporting abdominal pain” value was 2.5%, the patients reporting diarrhea is given as 3.6% and the patients reporting nausea is 2.6%.
